Reference: paper PMC10382351, “In vivo evaluation of a novel ^18F-labeled PET radioligand for translocator protein 18 kDa (TSPO) in monkey brain” (European Journal of Nuclear Medicine and Molecular Imaging, 2023)
Where “and” joins values, the source holds several entries; their conditions need not be identical. Identical values can stand only once.

System: 18 kDa translocator protein (TSPO)
Assay: PET imaging of [^18F]SF51 in rhesus monkey brain with kinetic analysis (2TCM, Logan plot, Lassen plot)
Type: in vivo
Conditions: for Estimated K1: three rhesus monkeys; for VT/fP using Logan plot: n=3
Experimental: Electrocardiogram, body temperature, heart rate, and respiratory rate measures were monitored throughout the scan.
Brain PET imaging was performed using a microPET Focus 220 camera (Siemens Medical Solution; Knoxville, TN). […] For baseline experiments, 20 mL of a vehicle containing 20% (2-hydroxypropyl)-β-cyclodextrin and two equivalents of HCl were injected intravenously 10 min before radioligand administration. For the blocked experiment, PK11195 was dissolved in vehicle and then injected intravenously (5 mg/kg) 10 min before radioligand injection for all three monkeys. One of the three monkeys underwent an additional blocked scan with 5 mg/kg of PBR28, performed using a MultiScan™ LFER 150 PET/CT (Mediso USA, LLC; Arlington, VA). The interval between baseline and blocked imaging sessions was at least three weeks in order to allow the monkey to recover from arterial blood sampling. Focus 220 PET images were histogrammed into 30 time frames (6 × 30, 3 × 60, 2 × 120, 4 × 300, and 15 × 600 s) and reconstructed using Fourier rebinning plus a two-dimensional filtered back-projection with scatter and attenuation correction. MultiScan LFER PET images were reconstructed with 3D-OSEM with two iterations and nine subsets and were corrected for scatter and attenuation.
PET images were co-registered to a standardized monkey MRI template using PMOD software (PMOD version 4.1, PMOD Technologies Ltd.; Zurich, Switzerland). Thirty-three predefined regions of interest (ROIs) from a monkey brain template were applied to the co-registered PET images to obtain regional time-activity curves (Supplementary Table S2). Brain uptake was expressed as standardized uptake value (SUV), which normalizes for injected radioactivity and body weight. Using the brain time-activity curves and the radiometabolite-corrected arterial input function, the total VT was derived from a two-tissue compartment model (2TCM). Receptor occupancy by PK11195 and nondisplaceable distribution volume (VND/fP) of [^18F]SF51 were determined by an axes-transformed Lassen plot, where the y-axis reports the difference in VT between the baseline and the blocked scans, corrected by the respective fp values, and the x-axis reports the values at baseline (VTbase/fPbase).

## CC[C@@H](C)N(C)C(=O)c1nc(-c2cccc([18F])c2)c2ccccc2n1 [[^18F]SF51]
Baseline, Amygdala, 2TCM, n = 3
  VT/fP: 242 mL·cm^−3
Baseline, Amygdala, 2TCM
  Estimated K1: 0.29 mL·cm^-3·min^-1
Baseline, Amygdala
  VT/fP using Logan plot: 229 mL·cm^-3
Baseline, Amygdala, one monkey (PBR28 experiment)
  VT/fP: 284 mL·cm^-3
Baseline, Cerebellum, 2TCM, n = 3
  VT/fP: 179 mL·cm^−3
Baseline, Cerebellum, 2TCM
  Estimated K1: 0.34 mL·cm^-3·min^-1
Baseline, Cerebellum
  VT/fP using Logan plot: 172 mL·cm^-3
Baseline, Cerebellum, one monkey (PBR28 experiment)
  VT/fP: 208 mL·cm^-3
Baseline, Cingulate Cortex, 2TCM, n = 3
  VT/fP: 218 mL·cm^−3
Baseline, Cingulate Cortex, 2TCM
  Estimated K1: 0.30 mL·cm^-3·min^-1
Baseline, Cingulate Cortex
  VT/fP using Logan plot: 208 mL·cm^-3
Baseline, Cingulate Cortex, one monkey (PBR28 experiment)
  VT/fP: 260 mL·cm^-3
Baseline, Frontal Cortex, 2TCM, n = 3
  VT/fP: 201 mL·cm^−3
Baseline, Frontal Cortex, 2TCM
  Estimated K1: 0.30 mL·cm^-3·min^-1
Baseline, Frontal Cortex
  VT/fP using Logan plot: 192 mL·cm^-3
Baseline, Frontal Cortex, one monkey (PBR28 experiment)
  VT/fP: 241 mL·cm^-3
Baseline, Hippocampus, 2TCM, n = 3
  VT/fP: 220 mL·cm^−3
Baseline, Hippocampus, 2TCM
  Estimated K1: 0.33 mL·cm^-3·min^-1
Baseline, Hippocampus
  VT/fP using Logan plot: 211 mL·cm^-3
Baseline, Hippocampus, one monkey (PBR28 experiment)
  VT/fP: 253 mL·cm^-3
Baseline, Insula, 2TCM, n = 3
  VT/fP: 224 mL·cm^−3
Baseline, Insula, 2TCM
  Estimated K1: 0.35 mL·cm^-3·min^-1
Baseline, Insula
  VT/fP using Logan plot: 214 mL·cm^-3
Baseline, Insula, one monkey (PBR28 experiment)
  VT/fP: 264 mL·cm^-3
Baseline, Occipital Cortex, 2TCM, n = 3
  VT/fP: 183 mL·cm^−3
Baseline, Occipital Cortex, 2TCM
  Estimated K1: 0.31 mL·cm^-3·min^-1
Baseline, Occipital Cortex
  VT/fP using Logan plot: 175 mL·cm^-3
Baseline, Occipital Cortex, one monkey (PBR28 experiment)
  VT/fP: 217 mL·cm^-3
Baseline, Parietal Cortex, 2TCM, n = 3
  VT/fP: 202 mL·cm^−3
Baseline, Parietal Cortex, 2TCM
  Estimated K1: 0.30 mL·cm^-3·min^-1
Baseline, Parietal Cortex
  VT/fP using Logan plot: 193 mL·cm^-3
Baseline, Parietal Cortex, one monkey (PBR28 experiment)
  VT/fP: 246 mL·cm^-3
Baseline, Striatum, 2TCM, n = 3
  VT/fP: 225 mL·cm^−3
Baseline, Striatum, 2TCM
  Estimated K1: 0.38 mL·cm^-3·min^-1
Baseline, Striatum
  VT/fP using Logan plot: 215 mL·cm^-3
Baseline, Striatum, one monkey (PBR28 experiment)
  VT/fP: 266 mL·cm^-3
Baseline, Temporal Cortex, 2TCM, n = 3
  VT/fP: 209 mL·cm^−3
Baseline, Temporal Cortex, 2TCM
  Estimated K1: 0.30 mL·cm^-3·min^-1
Baseline, Temporal Cortex
  VT/fP using Logan plot: 201 mL·cm^-3
Baseline, Temporal Cortex, one monkey (PBR28 experiment)
  VT/fP: 241 mL·cm^-3
Baseline, Thalamus, 2TCM, n = 3
  VT/fP: 218 mL·cm^−3
Baseline, Thalamus, 2TCM
  Estimated K1: 0.35 mL·cm^-3·min^-1
Baseline, Thalamus
  VT/fP using Logan plot: 208 mL·cm^-3
Baseline, Thalamus, one monkey (PBR28 experiment)
  VT/fP: 259 mL·cm^-3
Baseline, Whole Brain, 2TCM, n = 3
  VT/fP: 203 ± 15 mL·cm^−3 and 203 mL·cm^−3
Baseline, Whole Brain, 2TCM
  Estimated K1: 0.31 mL·cm^-3·min^-1
Baseline, Whole Brain
  VT/fP using Logan plot: 194 mL·cm^-3
Baseline, Whole Brain, one monkey (PBR28 experiment)
  VT/fP: 240 mL·cm^-3
Blocked (PK11195 5 mg/kg i.v.), Amygdala, 2TCM, n = 3
  VT/fP: 23 mL·cm^−3
Blocked (PK11195 5 mg/kg i.v.), Cerebellum, 2TCM, n = 3
  VT/fP: 26 mL·cm^−3
Blocked (PK11195 5 mg/kg i.v.), Cingulate Cortex, 2TCM, n = 3
  VT/fP: 25 mL·cm^−3
Blocked (PK11195 5 mg/kg i.v.), Frontal Cortex, 2TCM, n = 3
  VT/fP: 26 mL·cm^−3
Blocked (PK11195 5 mg/kg i.v.), Hippocampus, 2TCM, n = 3
  VT/fP: 21 mL·cm^−3
